According to patent US5604214A, “Reduction of boar odor in meat” (Pfizer Inc., priority 1993, dated 1997):

Test system: boar salivary gland steroid 5-α-reductase (boar 4-ene-5-α-reductase enzyme)
Assay: Boar steroid 5α-reductase enzyme activity and inhibitor potency assay ([14C]testosterone conversion, boar salivary gland microsomes)
Assay type: biochemical
Conditions: 500 nM compound, 37° C., 30 minutes
Procedure: Microsomal preparations from boar salivary glands were prepared by the protocol desbribed by Liang, et al. for human prostatic microsomal 5-α-reductase.
Assay for enzyme activity and inhibitor potency.
A constant amount of [^14 C]testosterone (50 to 55 mCi/mmol) in ethanol and varying amounts of potential inhibitor (or no inhibitor i.e. control) in ethanol were deposited in test tubes and concentrated to dryness in vacuo. Assays for boar steroid 5α-reductase enzyme were conducted with a sample of the boar salivary gland 5-α-reductase in 50 mM phosphate buffer, pH 7.5 or in 50 mM citrate buffer at pH 5.0. To each tube was added buffer, 40 μl of microsomal preparation from boar salivary glands (hereinafter boar salivary gland steroid 5-α-reductase) and 20 μl of 20 mM NADPH to a final volume of 0.5 mL.
After incubating the solution at 37° C. for 30 minutes the reaction was quenched by the addition of 4 mL ethyl acetate and 0.25 μmol each of testosterone, 5α-dihydrotestosterone, androstanediol, and androstanedione as carriers. The organic layer was removed to a second test tube and evaporated to dryness in a Speed Vac. The residue was dissolved in 40 μL chloroform, spotted on an individual lane of a 20×20 cm prechannelled silica gel TLC plate (Si 250F-PA, Baker Chemical) and developed twice with acetone:chloroform (1:9). The radiochemical content in the bands of the substrate and the products was determined with a BIOSCAN Imaging Scanner (Bioscan Inc., Washington, D.C.). The percent of recovered radiolabel converted to product was calculated, from which enzyme activity was determined. All incubations were conducted such that no more than 20% of the substrate (testosterone) was consumed.
By following the above procedure in the absence of an inhibitor (i.e. control) a significant formation of 5-α-dihydrotestosterone, and the androstanediols occurred which indicated the presence of a high level of 4-ene-5-α-reductase enzyme activity in the microsomes prepared from the salivary glands of the boar.

[1] = pH 7.5 (50 mM phosphate buffer)

inhibition of the boar 5-α-reductase enzyme (vs. control) [1] [%] | Compound | inhibition of the boar 5-α-reductase enzyme (vs. control) (pH 5 (50 mM citrate buffer)) [%]
50 | CC(C)(C)NC(=O)[C@H]1CC[C@H]2[C@@H]3CC[C@H]4NC(=O)C=C[C@]4(C)[C@H]3CC[C@]12C [17β-(N-t-butylcarbamoyl)-4-aza-5α-androst-1-en-3-one] | 
50 | CC(C)(C)NC(=O)[C@H]1CC[C@H]2[C@@H]3CC=C4C=C(C(=O)O)CC[C@]4(C)[C@H]3CC[C@]12C [17β-(N-t-butylcarboxamide)-androst-3,5-diene-3-carboxylic acid] | 

Compound | inhibition of the boar 5-α-reductase enzyme (vs. control) [1] [%] | inhibition of the boar 5-α-reductase enzyme (vs. control) (pH 5 (50 mM citrate buffer)) [%]
CC(C)(C)NC(=O)[C@H]1CC[C@H]2[C@@H]3CCc4cc(C(=O)O)ccc4[C@H]3CC[C@]12C [17β-(N-t-butylcarboxamide)-estr-1,3,5(10)triene-3-carboxylic acid] | 80 | ~65
